US20210137941A1 (ZARODEX THERAPEUTICS LIMITED, priority 2018, published 2021)
Values joined by “and” are separate entries in the source; they are usually repeats but may differ in a detail not shown here. Equal values may be shown once. “Also recorded” adds a separate entry of the source. Read-outs that look alike come from different tables or passages of the source.

How the values were obtained:
[1] = tested on: circulating B cell subsets; experiment: Second observational study (interim analysis): peripheral blood B cell subsets by FACS; assay type: in vivo, human; details: interim data
[2] = tested on: circulating total IgG, IgA, IgM and pneumococcus IgG; experiment: Second observational study (interim analysis): circulating immunoglobulins; assay type: in vivo, human; details: interim data
[3] = tested on: splenic B cell and T cell populations; experiment: Wild type mouse study: spleen immunophenotyping by flow cytometry; assay type: in vivo, C57BL/6 mice
[4] = tested on: T follicular helper cells (CD4+ PD1+ CXCR5+); experiment: CIA model: T follicular helper cells in spleen and lymph node by FACS; assay type: in vivo, DBA/1 mice
Protocol: All experiments were approved by the Clinical Medicine Animal Welfare and Ethical Review Body (AWERB) and by the UK Home Office.
At the end of the experimental period, mice were humanely euthanised and bled by cardiac puncture to obtain blood samples for serum separation, storage at −80° C. and subsequent measurement of specific anti-collagen immunoglobulin (IgG1 and IgG2a isotypes) by ELISA. In parallel, spleen and inguinal lymph nodes were harvested for evaluation of cellular composition across these compartments using multi-laser flow cytometric detection and analysis. Numbers of B cell subsets in spleen and lymph nodes were determined by FACS.
Data were analyzed by one-way ANOVA with Tukey's or Dunnett's multiple comparison test or two-way ANOVA with Tukey's multiple comparison test as appropriate. All calculations were made using GraphPad Prism software. A P value less than 0.05 was considered significant.

[5] = tested on: Immunoglobulin levels (IgG, IgA and IgM); experiment: Referred clozapine patients (Immunology clinic): serum immunoglobulins; assay type: in vivo, human
[6] = tested on: bone marrow B cell subsets; experiment: Wild type mouse study: bone marrow B cell immunophenotyping by flow cytometry; assay type: in vivo, C57BL/6 mice
[7] = tested on: IgG to Haemophilus influenza B, Pneumococcus and Tetanus; details: human, in vivo
[8] = tested on: B cell subsets (class switched memory B cells, plasmablasts); details: for CSMB after stopping clozapine: one patient, 24 months after clozapine cessation (from 1.58%)
[9] = treatment-resistant schizophrenia; cited from earlier work
[10] = tested on: specific antibody titres against Haemophilus influenzae, Tetanus and Pneumococcal capsular polysaccharide; set-up: species or system human; details: in vivo
[11] = 13 referred patients on clozapine
[12] = 13 referred patients, clozapine 200-750 mg, duration >4 to 21 years (two had stopped), one line per patient

## CN1CCN(C2=Nc3cc(Cl)ccc3Nc3ccccc32)CC1 [Clozapine, clozapine]
[1]; FIG. 8A-B
  overall CD19+ B cell numbers vs control: not significantly different
[1]; FIG. 9A-C
  naive (CD19+CD27-) B cells as a proportion of total CD19+ B cells: Small increase
[1]; FIG. 10A-C
  overall memory B cell pool: without perturbation
[1]; FIG. 12A-C
  IgM hi IgD lo memory B cell subpopulation: without perturbation
[1]; FIG. 14A-C
  circulating levels of marginal zone B cells: No significant difference
[1]; P=0.06 vs control, FIG. 11A-C
  class-switched memory B cells (CD27+ IgM- IgD- as % B): Strong trends to a specific reduction
[1]; P=0.07 vs control clozapine naive, FIG. 15A-C
  levels of plasmablasts: Strong trends to reduction
[2]; FIG. 6A-C
  levels of circulating total IgG, IgA and IgM vs clozapine naive control: Significantly reduced levels
[2]; FIG. 7
  IgG antibodies against pneumococcus vs control: trend to lower
[3]; 5 mg/kg and 10 mg/kg IP, 21 days, FIG. 21
  percentage of splenic B cells (B220+TCR-beta-) of total live splenocytes: significantly lower percentage
[3]; FIG. 21
  other splenic cell populations (B220-TCR-beta-): No effect
  percentage of splenic T cells: reciprocal increase
[3]; FIG. 22
  splenic follicular B cell subset: no specific reductions
  splenic marginal zone B cell subset: no specific reductions
[3]; across all doses, FIG. 22
  proportion of T2 B cells in the spleen: small increase
[3]; clozapine 2.5-10 mg/kg, haloperidol 1 mg/kg, IP 21 days, FIG. 21
  activated T cells (B220+TCR-beta+) in spleen vs control: reduced in dose-dependent fashion
[3]; including at the 2.5 mg/kg dose, FIG. 22
  transitional stage 1 (T1) B cells in the spleen: mildly reduced proportion
[3]; steady state, FIG. 22
  germinal centre cells in the spleen vs control or haloperidol: no differences observed
[4]; 5 or 10 mg/kg from day 1 or day 15, FIG. 34
  proportions of CD4+PD1+CXCR5+ T follicular helper cells in lymph node or spleen: did not significantly affect
[4]; all doses and time points, FIG. 35
  expression of PD-1 (MFI) in lymph node T follicular helper cells: Reduced expression
[4]; dosed from day 1, lymph node and spleen, FIG. 36
  CXCR5 expression (MFI) on T follicular helper cells: significant reductions
[4]; lymph node and spleen, FIG. 37
  expression of CCR7 on germinal centre resident T follicular helper cells: reduction in expression
[5]; [11]
  mean IgA, referred patients: 0.34 g/L
  mean IgG, referred patients: 3.6 g/L
  mean IgM, referred patients: 0.21 g/L
[5]; [12]
  serum IgA, individual referred patients: IgA 0.54 g/L and <0.22 g/L (6×) and IgA 0.49 g/L and IgA 0.38 g/L and undetect- and IgA 0.26 g/L and IgA 0.81 g/L and IgA 0.63 g/L
  serum IgG, individual referred patients: IgG 4.8 g/L and <1.34 g/L (2×) and IgG 5.24 g/L and IgG 2.68 g/L and IgG 2.98 g/L and IgG 1.2 g/L and IgG 3.3 g/L and IgG 2.38 g/L and IgG 4.24 g/L and IgG 6.65 g/L and IgG 5.61 g/L and IgG 4.79 g/L
  serum IgM, individual referred patients: IgM 0.3 g/L and <0.17 g/L (7×) and 0.41 g/L (2×) and 0.23 g/L and 0.07 g/L and 0.18 g/L
[5]; 13 referred patients, clozapine 200-750 mg, duration >4 to 21 years (two had stopped), one line per patient, listed as clozapine
  serum IgG, individual referred patients: 3.3 g/L
[5]; FIG. 5, gradual recovery over 3 years
  serum IgG post-discontinuation of clozapine: 5.95 g/L
[5]; FIG. 5, start of recovery
  serum IgG at discontinuation of clozapine: 3.5 g/L
[5]; FIG. 5 / one patient over 24 months
  IgA and IgM following cessation of clozapine: without clear improvement; also recorded: remained low
[5]; one patient, 24 months after clozapine cessation
  serum IgM after stopping clozapine: 0.49 after 24 months
[5]; one patient, within 24 months after cessation
  serum IgG after stopping clozapine, intermediate value: 4.8 g/L
[6]; 10 mg/kg IP, 21 days, FIG. 18
  pro-B cell fraction in bone marrow: without any change
  proportion of pre-pro B cells in bone marrow: significant increase
[6]; 5 and 10 mg/kg IP, 21 days, significant, FIG. 20
  reduction in the percentage of long-lived plasma cells in the bone marrow compared to control: ~30%
[6]; IP 21 days, FIG. 19
  percentage of immature B cells in bone marrow: reduction
[6]; any dose (2.5, 5, 10 mg/kg IP, 21 days), FIG. 18
  overall B cells in the bone marrow: No overall reduction
[6]; dose-dependent, significant vs control from 2.5 mg/kg, IP 21 days, FIG. 19
  pre-B cells in bone marrow: reduction
[6]; reaching significance for the 5 mg/kg dose, FIG. 19
  percentage of proliferating pre-B cells in bone marrow: diminished
[7]
  individuals failing to develop a pneumococcal IgG response above 50 mg/L: 73%
  individuals failing to exceed 0.1 IU/mL post-vaccination Tetanus-IgG level: 1/12
  individuals failing to mount a Haemophilus-IgG response of at least 1 mcg/ml: 42%
  patients with IgG to Haemophilus influenza B (HiB) <1 mcg/ml: 75%
  patients with Pneumococcus-IgG <50 mg/L: 94%
  patients with Tetanus-IgG <0.1 IU/mL: 38%
  patients with impaired responses to vaccination: 10/11
  vaccine response, individual referred patients: Failure to responds to; also recorded: Non-durable
[8]; FIG. 3B
  marginal zone B cell numbers vs healthy control: no significant difference
  total B cell numbers vs CVID and healthy controls: similar
[8]; class switched memory B cells as % of CD19+ cells, one line per patient, listed as clozapine
  CSMB (6.5-29.1%), individual referred patients: 1.58%
[8]; human, in vivo
  overall lymphopenia / B cell lymphopenia: no severe overall lymphopenia or B cell lymphopenia
[8]
  CSMB after stopping clozapine: CSMB rose to 2.77%
[8]; listed as clozapine
  CSMB after stopping clozapine: 2.77%
[8]; reference range 6.5-29.1%, p<0.0001 vs healthy controls, FIG. 3A
  mean percentage of CSMB, referred patients: 1.87%
[9]
  previously treatment refractive patients in whom effective: approximately 60%
[10]
  % of patients with IgG-Haemophilus B <1.0 mcg/ml (below protective level): 51% and 51.2% and 51.1% and 49.4% and 50.9%
  % of patients with IgG-Pneumococcus <35 mg/L: 39.0% and 38.3% and 37.9% and 45.6%
